Here are results for 15 compounds from ChEMBL document CHEMBL1201862, “PubChem BioAssay data set” (2004).

For one assay, the target named is T1, Coagulation factor XII (Homo sapiens, UniProt P00748).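 Also: activated factor XIIa alpha cleaving a fluorogenic AMC peptide substrate; inhibitor potency from loss of enzyme activity.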
T1 sequence (P00748 whole entry): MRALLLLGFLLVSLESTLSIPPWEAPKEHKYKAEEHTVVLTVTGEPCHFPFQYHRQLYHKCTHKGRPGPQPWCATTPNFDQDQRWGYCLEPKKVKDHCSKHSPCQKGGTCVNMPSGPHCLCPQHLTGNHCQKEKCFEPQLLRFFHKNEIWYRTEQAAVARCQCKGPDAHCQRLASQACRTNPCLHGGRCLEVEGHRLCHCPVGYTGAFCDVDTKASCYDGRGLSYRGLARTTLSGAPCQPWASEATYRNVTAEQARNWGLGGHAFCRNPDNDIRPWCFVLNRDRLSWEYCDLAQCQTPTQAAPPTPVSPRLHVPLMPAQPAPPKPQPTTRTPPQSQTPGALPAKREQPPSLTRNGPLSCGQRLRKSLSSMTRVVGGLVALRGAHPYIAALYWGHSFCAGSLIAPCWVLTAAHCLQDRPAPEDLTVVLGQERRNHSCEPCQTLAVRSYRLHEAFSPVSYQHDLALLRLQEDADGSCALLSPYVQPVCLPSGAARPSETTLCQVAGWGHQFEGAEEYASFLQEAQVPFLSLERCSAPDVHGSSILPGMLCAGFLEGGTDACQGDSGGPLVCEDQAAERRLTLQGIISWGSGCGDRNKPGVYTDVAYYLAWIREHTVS
Format: functional.

Assay [1] is described as follows: growth suppression of PTEN-null colon cells, dose response, cell-based, HCT116 PTEN knockout (AID 1047).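 Also: HCT116 colon tumor cells with PTEN knocked out; cells exposed to compound for 60 hours before readout; potency for loss of cell viability measured by luminescence.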 The class given is functional.
Assay [2] in a line: growth suppression of beta-catenin-knockout colon cells, dose response, cell-based, HCT116, human colon tumor (AID 1045).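 Also: HCT116 colon tumor cells with beta catenin knocked out; cells exposed to compound for 60 hours.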 The class given is functional.
For another assay, the target named is T2, Estrogen receptor (Homo sapiens, UniProt P03372).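 Also: potency for inhibiting coactivator peptide recruitment to the receptor.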
T2 sequence (P03372 whole entry): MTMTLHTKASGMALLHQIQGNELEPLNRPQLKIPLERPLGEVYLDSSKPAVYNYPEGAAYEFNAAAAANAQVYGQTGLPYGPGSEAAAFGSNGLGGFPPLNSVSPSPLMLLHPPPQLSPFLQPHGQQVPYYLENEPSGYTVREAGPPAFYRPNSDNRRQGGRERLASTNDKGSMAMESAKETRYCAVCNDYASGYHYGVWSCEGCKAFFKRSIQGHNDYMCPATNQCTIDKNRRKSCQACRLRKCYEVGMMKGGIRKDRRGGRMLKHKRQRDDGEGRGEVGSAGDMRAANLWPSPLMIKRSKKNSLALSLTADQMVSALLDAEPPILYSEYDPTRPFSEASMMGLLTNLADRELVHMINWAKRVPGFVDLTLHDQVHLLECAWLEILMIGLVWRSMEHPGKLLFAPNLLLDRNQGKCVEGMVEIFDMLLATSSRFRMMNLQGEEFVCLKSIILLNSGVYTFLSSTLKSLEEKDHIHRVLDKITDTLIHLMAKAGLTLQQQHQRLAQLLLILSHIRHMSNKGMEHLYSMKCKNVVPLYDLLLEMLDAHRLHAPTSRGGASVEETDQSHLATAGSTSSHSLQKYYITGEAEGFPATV

For assay [3], the target named is T3, Mannose-6-phosphate isomerase (Homo sapiens, UniProt P34949).
T3 sequence (P34949 whole entry): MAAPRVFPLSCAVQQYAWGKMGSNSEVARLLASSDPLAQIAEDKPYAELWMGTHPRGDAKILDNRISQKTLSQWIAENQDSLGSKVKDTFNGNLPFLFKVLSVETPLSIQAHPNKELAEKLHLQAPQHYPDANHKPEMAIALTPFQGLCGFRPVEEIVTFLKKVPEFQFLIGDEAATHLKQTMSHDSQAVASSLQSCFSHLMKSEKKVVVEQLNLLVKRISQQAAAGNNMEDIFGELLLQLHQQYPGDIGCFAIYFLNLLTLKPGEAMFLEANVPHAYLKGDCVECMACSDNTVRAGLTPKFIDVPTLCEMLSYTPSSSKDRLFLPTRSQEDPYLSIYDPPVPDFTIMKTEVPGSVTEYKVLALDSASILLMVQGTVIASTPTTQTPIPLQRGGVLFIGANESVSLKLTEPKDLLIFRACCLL
Kind of assay: PMI enzyme inhibitors, confirmation, biochemical, fluorescence intensity (AID 1535).

A further assay has as its target T4, Phosphomannomutase 2 (Homo sapiens, UniProt O15305).
T4 sequence (O15305 whole entry): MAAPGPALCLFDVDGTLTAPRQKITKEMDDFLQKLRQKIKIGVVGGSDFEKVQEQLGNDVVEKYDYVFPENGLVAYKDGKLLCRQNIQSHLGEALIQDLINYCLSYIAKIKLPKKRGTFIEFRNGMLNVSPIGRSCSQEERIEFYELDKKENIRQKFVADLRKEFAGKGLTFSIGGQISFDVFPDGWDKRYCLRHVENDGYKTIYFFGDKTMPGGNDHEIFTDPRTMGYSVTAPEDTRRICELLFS
Kind of assay: Counter screen SAR assay for PMM2 inhibitors via a fluorescence intensity assay. [Related pubchem assays (depositor defined):AID1545, AID1574].

In the next assay the target is Keap1/Nrf2 (Homo sapiens, UniProt Q14145). Put plainly: Keap1-Nrf2 protein-protein interaction inhibitors, dose response, biochemical, fluorescence polarization, cherry-picked samples (AID 588683).
Chain of Keap1/Nrf2 (Q16236 whole entry): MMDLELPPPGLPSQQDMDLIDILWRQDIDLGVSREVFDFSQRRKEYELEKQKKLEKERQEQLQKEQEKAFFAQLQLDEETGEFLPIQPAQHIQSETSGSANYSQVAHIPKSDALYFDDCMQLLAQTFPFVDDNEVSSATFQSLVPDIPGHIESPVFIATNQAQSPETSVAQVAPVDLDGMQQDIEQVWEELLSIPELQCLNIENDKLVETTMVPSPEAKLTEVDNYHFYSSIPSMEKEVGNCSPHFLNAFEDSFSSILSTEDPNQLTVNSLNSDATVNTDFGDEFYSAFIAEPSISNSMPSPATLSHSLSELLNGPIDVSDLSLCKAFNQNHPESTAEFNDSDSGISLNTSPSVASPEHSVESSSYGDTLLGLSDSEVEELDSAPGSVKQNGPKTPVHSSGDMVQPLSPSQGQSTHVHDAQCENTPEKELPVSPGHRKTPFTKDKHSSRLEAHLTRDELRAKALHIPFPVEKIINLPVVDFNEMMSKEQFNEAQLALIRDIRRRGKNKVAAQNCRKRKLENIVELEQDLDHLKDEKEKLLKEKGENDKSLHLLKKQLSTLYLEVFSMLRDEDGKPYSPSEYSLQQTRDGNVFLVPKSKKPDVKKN
Chain of Keap1/Nrf2 (Q14145 whole entry): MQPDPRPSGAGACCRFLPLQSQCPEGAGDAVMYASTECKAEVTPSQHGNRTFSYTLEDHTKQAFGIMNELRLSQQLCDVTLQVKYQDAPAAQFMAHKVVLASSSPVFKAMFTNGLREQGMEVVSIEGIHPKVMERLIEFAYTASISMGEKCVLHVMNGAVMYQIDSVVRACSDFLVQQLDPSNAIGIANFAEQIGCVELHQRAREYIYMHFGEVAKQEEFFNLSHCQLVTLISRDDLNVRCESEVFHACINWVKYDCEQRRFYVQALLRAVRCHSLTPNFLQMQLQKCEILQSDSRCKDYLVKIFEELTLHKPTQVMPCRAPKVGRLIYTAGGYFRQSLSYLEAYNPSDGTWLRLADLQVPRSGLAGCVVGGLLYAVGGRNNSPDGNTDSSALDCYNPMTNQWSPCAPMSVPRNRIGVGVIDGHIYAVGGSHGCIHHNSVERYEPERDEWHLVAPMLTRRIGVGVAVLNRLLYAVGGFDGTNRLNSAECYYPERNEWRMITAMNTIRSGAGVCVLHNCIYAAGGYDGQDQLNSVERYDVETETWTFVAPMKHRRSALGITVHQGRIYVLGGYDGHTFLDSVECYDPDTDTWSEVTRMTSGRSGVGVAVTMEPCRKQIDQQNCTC
A short description of assay [4]: inhibitors of SNCA 5'UTR-driven reporter translation, confirmation, H4 neuroglioma cells, luminescence (AID 1988). Format: functional, cell-based.
A short description of assay [5]: Luminescence Cell-Based Dose Response HTS to Identify Inhibitors of 5'UTR Stem-Loop Driven Prion Protein mRNA Translation in H4 Neuroglioblastoma Cells. [Related pubchem assays: 1827 (Project Summary), 1813 (Primary HTS)]. Format: functional.
Assay [6] in a line: cytotoxicity in HEK-293T cells, dose response, cytotoxicity control for BCR NF-kB inhibitor project, luminescence, B-cell screen hits (AID 489021).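 Also: HEK-293T cells carrying an NF-kB luciferase reporter; cells exposed to compound for about 14 hours before viability readout.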 The class given is functional, cell-based.
Assay [7] can be described thus: inhibitors of firefly luciferase expression or activity, dose response, H4 neuroglioma cells, luminescence (AID 1990). The class given is functional, cell-based.
For assay [8], the target named is G-protein coupled receptor 35 (Homo sapiens, UniProt Q9HC97). Kind of assay: GPR35 antagonists blocking zaprinast-driven arrestin recruitment, primary screen, imaging, U2OS, beta-arrestin-GFP, zaprinast agonist (AID 2058).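 Also: antagonist potency meaning inhibition of agonist-induced arrestin redistribution.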 Format: functional.
Assay [9] has as its target Neurotensin receptor type 1 (Homo sapiens, UniProt P30989). The class given is functional.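 Also: Image-based confirmatory dose-response assay measuring agonist activity at NTR1; NTR1-expressing U2OS osteosarcoma cells imaged for beta-arrestin GFP spot formation; agonist potency where compounds increase beta-arrestin recruitment.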
Assay [10] can be described thus: Luminescence Cell-Based Dose Retest to Confirm Inhibitors of Cancer Stem Cells. [Related pubchem assays (depositor defined):AID2717, AID2721]. Format: functional. To be noted: Homo sapiens.
Assay [11] concerns the target Eukaryotic translation initiation factor 4H (Homo sapiens, UniProt Q15056). Kind of assay: human eIF4H binding inhibitors, primary screen, translation initiation inhibitor project, biochemical, uHTS, fluorescence polarization (AID 2012).
The target in another assay is T5, Aminopeptidase N (Plasmodium falciparum FcB1/Columbia, UniProt O96935).
T5 sequence (O96935 whole entry): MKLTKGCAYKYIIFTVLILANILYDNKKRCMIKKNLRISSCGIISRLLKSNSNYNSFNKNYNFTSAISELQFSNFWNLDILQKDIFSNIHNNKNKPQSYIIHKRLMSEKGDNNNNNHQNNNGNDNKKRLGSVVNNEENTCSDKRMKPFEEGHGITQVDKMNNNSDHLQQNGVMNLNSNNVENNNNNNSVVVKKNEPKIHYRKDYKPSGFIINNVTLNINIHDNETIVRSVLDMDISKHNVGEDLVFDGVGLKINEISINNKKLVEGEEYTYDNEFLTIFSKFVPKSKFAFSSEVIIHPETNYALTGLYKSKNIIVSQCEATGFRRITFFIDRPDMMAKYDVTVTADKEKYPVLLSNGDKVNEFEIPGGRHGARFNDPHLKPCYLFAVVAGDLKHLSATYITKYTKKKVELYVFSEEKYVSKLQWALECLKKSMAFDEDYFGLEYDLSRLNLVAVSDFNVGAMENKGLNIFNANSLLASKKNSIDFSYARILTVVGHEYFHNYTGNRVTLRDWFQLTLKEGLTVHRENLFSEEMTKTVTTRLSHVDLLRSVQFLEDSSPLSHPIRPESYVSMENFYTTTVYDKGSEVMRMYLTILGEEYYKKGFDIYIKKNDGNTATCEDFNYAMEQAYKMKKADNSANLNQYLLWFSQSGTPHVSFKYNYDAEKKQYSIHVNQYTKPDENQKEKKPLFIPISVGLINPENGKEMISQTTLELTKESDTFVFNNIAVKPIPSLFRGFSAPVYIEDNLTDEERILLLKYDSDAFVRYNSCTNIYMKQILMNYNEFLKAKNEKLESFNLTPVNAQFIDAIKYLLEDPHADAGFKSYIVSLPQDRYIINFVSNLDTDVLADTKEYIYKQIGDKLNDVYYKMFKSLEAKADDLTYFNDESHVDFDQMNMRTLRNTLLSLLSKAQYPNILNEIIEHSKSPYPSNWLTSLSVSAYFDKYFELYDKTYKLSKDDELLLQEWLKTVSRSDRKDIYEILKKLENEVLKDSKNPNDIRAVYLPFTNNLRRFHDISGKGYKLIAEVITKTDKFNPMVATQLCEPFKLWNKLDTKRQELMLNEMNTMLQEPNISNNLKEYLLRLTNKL
Put plainly: P. falciparum M1AAP inhibitors, biochemical, fluorogenic H-Leu-NHMec substrate, 1536-well (AID 1445). Details: species or system Plasmodium falciparum 3D7, 3D7.

The target in assay [12] is Polyadenylate-binding protein 1 (Homo sapiens, UniProt P11940). Put plainly: PABP poly(A) RNA binding inhibitors, primary screen, biochemical, fluorescence polarization, uHTS (AID 2014).
Chain of Polyadenylate-binding protein 1 (P11940 whole entry): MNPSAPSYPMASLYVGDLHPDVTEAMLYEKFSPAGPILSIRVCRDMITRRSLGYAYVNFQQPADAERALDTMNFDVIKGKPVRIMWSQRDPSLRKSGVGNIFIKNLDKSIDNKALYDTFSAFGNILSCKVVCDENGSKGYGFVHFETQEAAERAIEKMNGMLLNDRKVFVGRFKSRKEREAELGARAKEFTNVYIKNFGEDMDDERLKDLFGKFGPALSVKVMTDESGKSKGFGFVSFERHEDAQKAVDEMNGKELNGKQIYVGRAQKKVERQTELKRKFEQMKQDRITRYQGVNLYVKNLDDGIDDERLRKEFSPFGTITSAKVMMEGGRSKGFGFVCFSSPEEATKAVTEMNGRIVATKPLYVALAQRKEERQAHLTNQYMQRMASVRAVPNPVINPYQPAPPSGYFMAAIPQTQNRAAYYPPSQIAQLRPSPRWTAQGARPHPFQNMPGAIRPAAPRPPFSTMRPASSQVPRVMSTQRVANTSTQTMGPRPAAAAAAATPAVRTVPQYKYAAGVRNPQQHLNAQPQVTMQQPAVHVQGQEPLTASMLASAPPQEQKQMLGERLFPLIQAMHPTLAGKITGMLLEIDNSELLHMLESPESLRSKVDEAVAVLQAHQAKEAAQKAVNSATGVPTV
The target of assay [13] is Voltage-dependent T-type calcium channel subunit alpha-1H (Homo sapiens, UniProt O95180). Format: functional.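 Also: channel activity triggered by adding a high calcium stimulation buffer.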
Chain of Voltage-dependent T-type calcium channel subunit alpha-1H (O95180 whole entry): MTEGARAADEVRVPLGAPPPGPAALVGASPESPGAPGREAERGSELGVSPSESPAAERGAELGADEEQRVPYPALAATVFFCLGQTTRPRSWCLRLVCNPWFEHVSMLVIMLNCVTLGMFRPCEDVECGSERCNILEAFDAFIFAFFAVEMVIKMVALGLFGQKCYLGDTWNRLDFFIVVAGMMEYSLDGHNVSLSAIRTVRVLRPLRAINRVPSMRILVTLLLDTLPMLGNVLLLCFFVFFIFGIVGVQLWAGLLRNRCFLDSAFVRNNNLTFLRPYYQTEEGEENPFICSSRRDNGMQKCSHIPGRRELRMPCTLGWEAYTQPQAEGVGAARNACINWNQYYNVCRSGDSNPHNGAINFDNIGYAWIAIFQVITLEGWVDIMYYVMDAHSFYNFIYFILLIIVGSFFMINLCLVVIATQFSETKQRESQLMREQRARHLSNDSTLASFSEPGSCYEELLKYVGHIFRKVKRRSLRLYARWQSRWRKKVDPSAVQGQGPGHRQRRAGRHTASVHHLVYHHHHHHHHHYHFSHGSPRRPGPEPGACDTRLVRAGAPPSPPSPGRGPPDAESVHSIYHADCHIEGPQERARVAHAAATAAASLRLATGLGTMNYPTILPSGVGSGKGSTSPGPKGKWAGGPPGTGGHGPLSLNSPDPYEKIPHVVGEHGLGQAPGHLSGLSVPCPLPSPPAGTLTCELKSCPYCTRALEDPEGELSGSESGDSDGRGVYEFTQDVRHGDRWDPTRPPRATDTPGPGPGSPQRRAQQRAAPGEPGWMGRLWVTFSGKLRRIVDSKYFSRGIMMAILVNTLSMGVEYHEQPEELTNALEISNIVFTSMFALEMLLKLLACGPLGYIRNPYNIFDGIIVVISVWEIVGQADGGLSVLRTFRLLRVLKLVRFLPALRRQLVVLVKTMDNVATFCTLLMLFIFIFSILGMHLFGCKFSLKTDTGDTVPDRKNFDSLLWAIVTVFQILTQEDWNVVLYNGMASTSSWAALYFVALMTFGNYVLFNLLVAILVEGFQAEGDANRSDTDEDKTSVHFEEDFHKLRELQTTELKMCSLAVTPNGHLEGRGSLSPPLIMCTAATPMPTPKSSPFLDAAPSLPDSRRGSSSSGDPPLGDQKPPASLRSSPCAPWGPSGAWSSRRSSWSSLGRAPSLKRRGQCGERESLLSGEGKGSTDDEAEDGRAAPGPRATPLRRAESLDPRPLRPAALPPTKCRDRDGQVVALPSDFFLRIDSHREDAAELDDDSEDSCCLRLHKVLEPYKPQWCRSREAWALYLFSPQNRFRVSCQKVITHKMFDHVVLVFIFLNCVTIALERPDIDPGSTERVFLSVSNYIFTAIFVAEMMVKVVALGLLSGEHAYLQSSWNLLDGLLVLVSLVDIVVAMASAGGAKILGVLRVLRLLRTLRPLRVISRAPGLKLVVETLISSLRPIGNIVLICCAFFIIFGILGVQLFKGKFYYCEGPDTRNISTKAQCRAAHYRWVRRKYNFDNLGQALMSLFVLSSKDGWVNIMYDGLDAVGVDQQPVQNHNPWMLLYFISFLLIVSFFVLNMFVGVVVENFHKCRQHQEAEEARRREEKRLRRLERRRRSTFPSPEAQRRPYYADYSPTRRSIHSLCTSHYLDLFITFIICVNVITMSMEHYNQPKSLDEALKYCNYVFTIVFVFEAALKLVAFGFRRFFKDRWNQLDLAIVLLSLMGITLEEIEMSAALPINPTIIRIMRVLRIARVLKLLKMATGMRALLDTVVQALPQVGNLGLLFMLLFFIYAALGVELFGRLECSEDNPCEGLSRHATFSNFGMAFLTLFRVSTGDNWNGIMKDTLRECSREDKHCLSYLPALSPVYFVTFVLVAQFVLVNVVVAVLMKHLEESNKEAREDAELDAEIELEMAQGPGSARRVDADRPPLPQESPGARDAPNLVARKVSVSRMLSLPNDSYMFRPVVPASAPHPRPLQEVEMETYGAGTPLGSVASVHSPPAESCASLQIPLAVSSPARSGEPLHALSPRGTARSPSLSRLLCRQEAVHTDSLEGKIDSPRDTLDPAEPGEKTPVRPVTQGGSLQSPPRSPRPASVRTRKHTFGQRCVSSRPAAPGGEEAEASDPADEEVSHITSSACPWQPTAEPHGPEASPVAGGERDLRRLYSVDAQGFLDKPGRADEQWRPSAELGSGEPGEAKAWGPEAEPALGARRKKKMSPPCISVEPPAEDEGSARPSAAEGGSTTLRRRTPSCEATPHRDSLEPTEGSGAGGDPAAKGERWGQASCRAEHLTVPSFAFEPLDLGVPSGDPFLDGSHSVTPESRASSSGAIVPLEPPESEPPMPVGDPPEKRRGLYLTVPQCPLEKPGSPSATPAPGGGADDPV
A further assay deals with HeLa. Put plainly: HeLa cell cytotoxicity, dose response, cytotoxicity control, 24 h, cherry-picked samples (AID 504726).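 Also: potency for cytotoxicity as loss of luminescence signal.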 Format: functional, cell-based. To be noted: Homo sapiens.

Each structure is given as a SMILES string. “And” between values parts separate entries of the source, which are not always exact repeats. Equal values may be shown once. The source made the active and inactive calls.

Chain of Neurotensin receptor type 1 (P30989 whole entry): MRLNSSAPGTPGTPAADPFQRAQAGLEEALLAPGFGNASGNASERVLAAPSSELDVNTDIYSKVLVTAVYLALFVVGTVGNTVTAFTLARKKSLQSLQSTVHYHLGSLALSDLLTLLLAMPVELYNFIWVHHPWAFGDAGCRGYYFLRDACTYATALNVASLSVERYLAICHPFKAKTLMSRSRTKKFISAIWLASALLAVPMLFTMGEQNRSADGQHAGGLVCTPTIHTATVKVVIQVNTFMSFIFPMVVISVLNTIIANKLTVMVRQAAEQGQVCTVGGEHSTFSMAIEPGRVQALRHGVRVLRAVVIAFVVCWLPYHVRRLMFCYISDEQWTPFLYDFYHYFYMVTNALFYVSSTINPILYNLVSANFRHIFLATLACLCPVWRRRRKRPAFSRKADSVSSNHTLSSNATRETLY

In the case of `Cc1ccc(N/C=C2/C(=O)N(c3ccc4c(c3)OCO4)C(=O)c3ccccc32)cc1`, the values for the IC50 on Coagulation factor XII and at Estrogen receptor were > 50 µM (inactive) and 19.8 µM (active), respectively. For the same compound, the values for the concentration for a half-maximal effect (EC50) in [1] and in assay [2] were 8.15 µM (active) and 9.32 µM (active), respectively.

On to `Clc1nss/c1=N\c1cccnc1`, for which the IC50 was 16.7 µM (active) and 13.2 µM (active) in assay [3]; > 65.8 µM (active) on Phosphomannomutase 2.

With `c1ccc2c(c1)CCCN2Cc1nnnn1CC1CCCO1` (stereo not given), at Keap1/Nrf2, the AC50 was > 52 µM (inactive).

As for `Cc1nc2cc(-c3cccc(F)c3)nn2c(C)c1CCC(=O)N1CCC2(CC1)OCCO2`, the EC50 was 15.4 µM (active) in assay [4], 16.6 µM (active) in assay [5] and 10.1 µM (active) in assay [7]. In addition, the IC50 in [6] is > 80 µM (inactive).

Take `CCOC(=O)C1CCN(c2ncnc3c2cnn3-c2ccc(Cl)cc2)CC1`: in assay [6], the IC50 was > 80 µM (inactive).

Turning to `CC(C)CSC1=NSC2=NC(=O)/C(=C\c3coc4ccccc4c3=O)C(=N)N12`, in [8], the IC50 was 23.3 µM (inactive).

Turning to `COc1cc2c3nnc(-c4ccc(F)cc4)c-3cn(Cc3cccc(F)c3)c2cc1OC`, the EC50 in assay [9] was 3.59 µM (active).

Regarding `Cc1cc(C)c2c(c1)/C(=C/C(=O)c1ccc(Br)s1)C(=O)N2`, the EC50 in assay [9] was 6.24 µM (active). The AC50 in [10] was 2.22 µM (active).

Take `CCN(CC)Cc1c(O)ccc2c(C)c(CC(=O)OC)c(=O)oc12`: the IC50 was > 100 µM (inactive) in assay [11], 40.4 µM (active) at Aminopeptidase N and > 100 µM (inactive) in assay [12].

As to `CCN1C(=O)c2cccc3c(S(=O)(=O)N4CCC(C)CC4)ccc1c23`, in [6], the IC50 is > 80 µM (inactive).

Turning to `O=C1NC(=O)N(Cc2ccc(F)cc2)C(=O)/C1=C/Nc1ccc(C(=O)O)cc1`, the IC50 at Coagulation factor XII is > 50 µM (inactive).

For `CCOC(=O)c1cnn(-c2ccccc2)c1-n1cccc1C(=O)C(=O)Nc1ccc(F)cc1`, in [13], the 50% effective concentration (EC50) was 6.1 µM (active).

Regarding `c1ccc(-c2noc(CSc3nnnn3-c3ccccc3)n2)cc1`, the 50% effective concentration (EC50) in assay [13] was 8.32 µM (active).

Consider `Cc1ccc(NC(=O)c2ccc(Cl)c(S(=O)(=O)N3CCc4ccccc43)c2)nc1`, for which the concentration at half-maximal activity (AC50) with HeLa is 342 µM (active).

As for `CCOC(=O)CSc1snnc1-c1ccccc1`, the IC50 at Coagulation factor XII is > 50 µM (inactive).
